Measured values from patent publication US11307204B2, “5-ALA for detection of brain tumors” (PIOMA, INC., priority 2012, dated 2022).

Tested on: U87 cells
Test: Flow cytometry detection of PPIX in U87 cells exposed to 5-ALA
Format: cell-based
Settings: serum-free, 5-ALA 250 μg/ml, excitation 406 nm, filter 610/20
Method: U87 cells representative of GBM tumors grown in T-75 flasks, in the absence of serum, were exposed to 5-aminolevulinic acid ([…]; 250 μg/ml) for 4 or 24 hours. Following exposure, cells were subjected to fluorescent excitation in a LSRII flow cytometer with an excitation at 406 nm violet wave length. Filter specifications were set at either 450/50, or set at 610/20 for the detection of protoporphyrin IX (PPIX).

`NCC(=O)CCC(=O)O` [5-ALA, 5-aminolevulinic acid] was tested. Which “mean fluorescence index (MFI), PPIX” value (4 hours) did it give?
The value was “MFI increased”.

And the “mean fluorescence index (MFI), PPIX” value (24 hours)?
Its value is “MFI increased”.
